ChEMBL document CHEMBL1126890, “A tight binding inhibitor of 5-aminoimidazole ribonucleotide carboxylase” (J Med Chem, 1993)

How the values were obtained:
Parameters in all cases: species or system Aves
[1] = Kobs versus inhibitory concentration
[2] = Changes in free energy concentration
[3] = Inhibition of Avian AIR carboxylase in presence of 0.5 nM of the compound

- Ki [1]: 1.4 nM
- Ki [2]: 1.6 nM
- Ki [3]: 1.3 nM
Structure (SMILES): Nc1c([N+](=O)[O-])ncn1[C@@H]1O[C@H](COP(=O)(O)O)[C@@H](O)[C@H]1O
